Here are results for 10 molecules from ChEMBL document CHEMBL4311949, “Design, Synthesis, Evaluation, and Structural Studies of C2-Symmetric Small Molecule Inhibitors of Programmed Cell Death-1/Programmed Death-Ligand 1 Protein-Protein Interaction” (J Med Chem, 2019).

In general, IC50 refers to the midpoint of a concentration-inhibition curve. The term EC50 denotes the concentration at which the effect is half-maximal. As a reminder, the GI50 is the concentration giving 50% growth inhibition.

Active and inactive are the calls of the source. No cut-off for these calls is given here.

For data set [1], the target named is T1, Programmed cell death protein 1/Programmed cell death 1 ligand 1 (Homo sapiens, UniProt Q9NZQ7). The data set is described as follows: Inhibition of human Fc-tagged PD1 N-terminal domain (Leu25 to Gln167 residues) expressed in HEK293 cells/human His-tagged PDL1 (Phe19 to Arg238 residues) expressed in HEK293 cells protein-protein interaction after 1 hr by APC-labeled anti-His antibody/Eu-labeled anti-human IgG based HTRF assay. Format: cell-based.

A short description of data set [2]: Toxicity weighted activity index, ratio of GI50 for cytotoxicity against CHOK1 cells stably expressing human PDL1 co-cultured with human Jurkat T cell expressing human PD1 to EC50 for inhibition of PD1/PDL1 interaction in human Jurkat cells co-cultured with human U2OS cells expressing PDL1. Format: cell-based. Particulars: chinese hamster; read-out: Ratio GI50/EC50.

In data set [3] the target is T1, Programmed cell death protein 1/Programmed cell death 1 ligand 1. The data set is described as follows: Inhibition of human PD1 stably expressed in human Jurkat T cells co-expressing NFAT-induced luciferase/human PDL1 stably expressed in CHOK1 cells co-expressing aAPC protein-protein interaction assessed as increase in NFAT signaling measured after 6 hrs by bio-glo luciferase reporter gene assay. Format: cell-based. (Reporter assays use an easily measured gene product as a stand-in for the process of interest.)

The target in data set [4] is Programmed cell death 1 ligand 1 (Homo sapiens) (UniProt Q9NZQ7). The experiment in a line: Binding affinity to 15N-labelled human PDL1 assessed as induction of oligomerization by 1H-NMR spectra analysis.
For data set [5] the target is unchanged. The experiment in a line: Binding affinity to 15N-labelled human PDL1 assessed as induction of protein oligomerization by 1H-15N HMQC spectra analysis.
Data set [6] in a line: Cytotoxicity against CHOK1 cells stably expressing human PDL1 co-cultured with human Jurkat T cell expressing human PD1 measured after 24 hrs by XTT assay. Format: cell-based, Cricetulus griseus, CHO-K1. Particulars: chinese hamster; read-out: MNCC. In general terms: Formazan colour is commonly taken as a measure of viable cells.
Data set [7] addresses T1, Programmed cell death protein 1/Programmed cell death 1 ligand 1. The experiment in a line: (§1) Inhibition of PD1/PDL1 interaction in human Jurkat cells co-cultured with human U2OS cells expressing PDL1 assessed as reduction in SHP1 recruitment preincubated with U2OS cells for 60 mins followed by Jurkat cell addition and measured after 2 hrs by Pathhunter chemiluminescent assay. It is filed as cell-based.

Data set [8] in a line: Cytotoxicity against human Jurkat T cell expressing human PD1 co-cultured with CHOK1 cells stably expressing human PDL1 assessed as growth inhibition measured after 24 hrs by XTT assay. Format: cell-based.
A short description of data set [9]: Toxicity weighted activity index, ratio of GI50 for Cytotoxicity against human Jurkat T cell expressing human PD1 co-cultured with CHOK1 cells stably expressing human PDL1 to EC50 for inhibition of PD1/PDL1 interaction in human Jurkat cells co-cultured with human U2OS cells expressing PDL1. The conditions noted are these: read-out: Ratio GI50/EC50. Format: cell-based.

A short description of data set [10]: Toxicity weighted activity index, ratio of GI50 for Cytotoxicity against human Jurkat T cell expressing human PD1 co-cultured with CHOK1 cells stably expressing human PDL1 to EC50 for inhibition of human PD1 stably expressed in human Jurkat T cells co-expressing NFAT-induced luciferase/human PDL1 stably expressed in CHOK1 cells co-expressing aAPC protein-protein interaction. Particulars: read-out: Ratio GI50/EC50. It is filed as cell-based.

Data set [11] in a line: Toxicity weighted activity index, ratio of GI50 for cytotoxicity against CHOK1 cells stably expressing human PDL1 co-cultured with human Jurkat T cell expressing human PD1 to EC50 for inhibition of human PD1 stably expressed in human Jurkat T cells co-expressing NFAT-induced luciferase/human PDL1 stably expressed in CHOK1 cells co-expressing aAPC protein-protein interaction. Format: cell-based. The conditions noted are these: chinese hamster; read-out: Ratio GI50/EC50.

A short description of data set [12]: Cytotoxicity against human Jurkat T cell expressing human PD1 co-cultured with CHOK1 cells stably expressing human PDL1 measured after 24 hrs by XTT assay. The conditions noted are these: read-out: MNCC. It is filed as cell-based.
The nature of data set [13]: Cytotoxicity against CHOK1 cells stably expressing human PDL1 co-cultured with human Jurkat T cell expressing human PD1 assessed as growth inhibition measured after 24 hrs by XTT assay. The conditions noted are these: chinese hamster. It is filed as cell-based, Cricetulus griseus, CHO-K1.
The target in data set [14] is Programmed cell death protein 1/Programmed cell death 1 ligand 1 (Homo sapiens) (UniProt Q15116+Q9NZQ7). The data set is described as §1. It is filed as cell-based.

Sequence of Programmed cell death 1 ligand 1 (Homo sapiens) (Q9NZQ7 whole entry): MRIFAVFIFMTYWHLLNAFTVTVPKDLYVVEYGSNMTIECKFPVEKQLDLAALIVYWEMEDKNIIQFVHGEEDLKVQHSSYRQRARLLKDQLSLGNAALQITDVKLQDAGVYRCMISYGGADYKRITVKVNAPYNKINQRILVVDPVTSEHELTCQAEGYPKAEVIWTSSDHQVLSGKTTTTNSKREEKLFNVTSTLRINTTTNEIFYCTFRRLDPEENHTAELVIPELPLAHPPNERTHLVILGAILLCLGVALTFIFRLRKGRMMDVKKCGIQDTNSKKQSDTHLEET
T1 sequence (Q15116 whole entry, the tested form may be a part): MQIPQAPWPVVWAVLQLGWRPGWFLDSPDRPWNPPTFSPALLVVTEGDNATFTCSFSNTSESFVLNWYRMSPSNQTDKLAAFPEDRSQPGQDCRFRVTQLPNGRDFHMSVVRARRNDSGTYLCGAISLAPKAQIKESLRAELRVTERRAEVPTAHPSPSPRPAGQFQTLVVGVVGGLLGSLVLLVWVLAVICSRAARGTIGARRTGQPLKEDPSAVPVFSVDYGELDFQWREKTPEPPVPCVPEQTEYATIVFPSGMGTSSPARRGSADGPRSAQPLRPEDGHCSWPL
T1 sequence (Q9NZQ7 whole entry, the tested form may be a part): as the sequence (Q9NZQ7 whole entry) above

The molecule `CC(=O)NCCNCc1ccc(OCc2cccc(COc3ccc(CNCCNC(C)=O)c(OCc4cncc(C#N)c4)c3)c2)cc1OCc1cncc(C#N)c1` displayed an IC50 in data set [1] of over 10000 nM.
On the same count and under the same terms, the value for `CC(=O)NCCNCc1ccc(OCc2ccc(COc3ccc(CNCCNC(C)=O)c(OCc4cncc(C#N)c4)c3)cc2)cc1OCc1cncc(C#N)c1` was 8240 nM.
`CC(=O)NCCNCc1cc(C)c(OCc2cccc(-c3ccccc3)c2C)cc1OCc1cncc(C#N)c1`: the selectivity ratio in data set [2] was 37; in [9], 37; in data set [10], 2.7; in data set [11], 2.7. In addition, the EC50 was found to be 3 µM in [3] and 219 nM in data set [7]. The outcome in data set [4] and in [5] was Active. For the same molecule, the MNTC at 24 h in data set [6] and in data set [12] was 2560 nM throughout. For the same molecule, the GI50 at 24 h in [8] and in data set [13] was 8.1 µM throughout. The molecule further yielded an IC50 in data set [1] of 2.5 nM.
`CC(=O)NCCNCc1ccc(OCc2ccc(COc3ccc(CNCCNC(C)=O)c(OCc4cncc(C#N)c4)c3)c3ccccc23)cc1OCc1cncc(C#N)c1`: it took 462 nM to reach half-maximal inhibition in data set [1] (IC50).
`CC(=O)NCCNCc1cc(C)c(OCc2cccc(-c3cccc(COc4cc(OCc5cncc(C#N)c5)c(CNCCNC(C)=O)cc4C)c3C)c2C)cc1OCc1cncc(C#N)c1`: the outcome in [4] and in data set [5] was Active. Further, the MNTC at 24 h in data set [6] and in [12] was 2560 nM each time. In addition, the inhibition entry in data set [14] is “Dose-dependent effect”. For the same molecule, the GI50 at 24 h in data set [8] and in data set [13] was 11.8 µM each time.
Regarding `COc1nc(OCc2cccc(-c3cccc(COc4ccc(CNCCNC(C)=O)c(OC)n4)c3C)c2C)ccc1CNCCNC(C)=O`, the selectivity ratio in [2] was found to be 9.3; in data set [9], 9.3; in [10] it was 0.7; in [11], 0.7. The values for the EC50 in data set [3] and in [7] were 4.21 µM and 334 nM, respectively. The outcome in data set [4] and in data set [5] was Active. The MNTC at 24 h in data set [6] and in [12] was 2560 nM each time. In addition, the inhibition result in data set [14] was “Dose-dependent effect”. For the same molecule, the GI50 at 24 h in data set [8] and in [13] was 3.1 µM each time. In [1], this molecule yielded an IC50 of 25 nM.
Regarding `COc1nc(OCc2cccc(-c3ccccc3)c2C)ccc1CNCCNC(C)=O`, the MNTC at 24 h in data set [6] and in data set [12] was 2560 nM each time. Besides, the GI50 at 24 h in data set [8] and in data set [13] was 4.5 µM each time.
Consider `CCNCc1cc(C)c(OCc2cccc(-c3ccccc3)c2C)cc1OCc1cncc(C#N)c1`, for which the IC50 in data set [1] was determined as 2.2 nM.
As for `CCNCc1cc(C)c(OCc2cccc(-c3cccc(COc4cc(OCc5cncc(C#N)c5)c(CNCC)cc4C)c3C)c2C)cc1OCc1cncc(C#N)c1`, 3.8 nM corresponded to half-maximal inhibition in data set [1] (IC50).
On to `CC(=O)NCCNCc1ccc(OCc2ccc3cc(COc4ccc(CNCCNC(C)=O)c(OCc5cncc(C#N)c5)c4)ccc3c2)cc1OCc1cncc(C#N)c1`, for which inhibition in [1] was half-maximal at 1170 nM (IC50).
